From PubChem BioAssay (NCI)
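Tested at 5 concentrations; 48 h exposure; 96-well plates; endpoints linearly interpolated, else capped at highest concentration. GI50: concentration for 50% inhibition of growth. TGI denotes the concentration required for complete inhibition of growth.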

Experiments:
Assay in all cases: growth of human tumour cells (NCI), 48 h
SR leukemia = test system: SR leukemia
NCI-H460 lung = test system: NCI-H460 lung
COLO 205 colon = test system: COLO 205 colon
SK-OV-3 ovarian = test system: SK-OV-3 ovarian
PC-3 prostate = test system: PC-3 prostate
SF-539 CNS = test system: SF-539 CNS
TK-10 renal = test system: TK-10 renal
CCRF-CEM leukemia = test system: CCRF-CEM leukemia
UO-31 renal = test system: UO-31 renal
NCI/ADR-RES ovarian = test system: NCI/ADR-RES ovarian
HCC-2998 colon = test system: HCC-2998 colon
RXF 393 renal = test system: RXF 393 renal
MOLT-4 leukemia = test system: MOLT-4 leukemia
K-562 leukemia = test system: K-562 leukemia
SK-MEL-2 melanoma = test system: SK-MEL-2 melanoma
MDA-MB-468 breast = test system: MDA-MB-468 breast
SNB-75 CNS = test system: SNB-75 CNS
SF-268 CNS = test system: SF-268 CNS
NCI-H522 lung = test system: NCI-H522 lung
M14 melanoma = test system: M14 melanoma
BT-549 breast = test system: BT-549 breast
HCT-116 colon = test system: HCT-116 colon
HOP-62 NSCLC = test system: HOP-62 NSCLC
OVCAR-8 ovarian = test system: OVCAR-8 ovarian
IGROV1 ovarian = test system: IGROV1 ovarian
UACC-62 melanoma = test system: UACC-62 melanoma
ACHN renal = test system: ACHN renal
A549 NSCLC = test system: A549 NSCLC
SK-MEL-28 melanoma = test system: SK-MEL-28 melanoma
HL-60(TB) leukemia = test system: HL-60(TB) leukemia
OVCAR-5 ovarian = test system: OVCAR-5 ovarian
HS 578T breast = test system: HS 578T breast
MDA-MB-435 = test system: MDA-MB-435
LOX IMVI melanoma = test system: LOX IMVI melanoma
U251 CNS = test system: U251 CNS
T-47D breast = test system: T-47D breast
SNB-19 CNS = test system: SNB-19 CNS
MDA-MB-231 breast = test system: MDA-MB-231 breast
DU-145 prostate = test system: DU-145 prostate
EKVX NSCLC = test system: EKVX NSCLC
UACC-257 melanoma = test system: UACC-257 melanoma
SW-620 colon = test system: SW-620 colon
OVCAR-3 ovarian = test system: OVCAR-3 ovarian
OVCAR-4 ovarian = test system: OVCAR-4 ovarian
SN12C renal = test system: SN12C renal
MALME-3M melanoma = test system: MALME-3M melanoma
CAKI-1 renal = test system: CAKI-1 renal
A498 renal = test system: A498 renal
KM12 colon = test system: KM12 colon
MCF7 breast = test system: MCF7 breast
HT29 colon = test system: HT29 colon
RPMI-8226 leukemia = test system: RPMI-8226 leukemia
NCI-H226 lung = test system: NCI-H226 lung
HCT-15 colon = test system: HCT-15 colon
HOP-92 NSCLC = test system: HOP-92 NSCLC
786-0 renal = test system: 786-0 renal
SK-MEL-5 melanoma = test system: SK-MEL-5 melanoma
SF-295 CNS = test system: SF-295 CNS
NCI-H23 lung = test system: NCI-H23 lung

`O=C1c2c(c3c4cc(F)ccc4oc3c3[nH]c4ccc(Br)cc4c23)C(=O)N1O` was tested, and the GI50 (SR leukemia) was 0.131 µM, the TGI (SR leukemia) was > 100 µM and the GI50 (NCI-H460 lung) was 0.393 µM. The TGI (NCI-H460 lung) was > 100 µM, the GI50 (COLO 205 colon) was > 33 µM and the TGI (COLO 205 colon) was > 100 µM. The GI50 (SK-OV-3 ovarian) was 3.72 µM, the TGI (SK-OV-3 ovarian) was 37.6 µM and the GI50 (PC-3 prostate) was 0.926 µM. The TGI (PC-3 prostate) was > 100 µM, the GI50 (SF-539 CNS) was 0.381 µM and the TGI (SF-539 CNS) was 4.34 µM. It also gave a GI50 (TK-10 renal) of 24.9 µM, a TGI (TK-10 renal) of 72.5 µM and a GI50 (CCRF-CEM leukemia) of 0.193 µM. The TGI (CCRF-CEM leukemia) was > 100 µM, the GI50 (UO-31 renal) was 0.439 µM and the TGI (UO-31 renal) was > 100 µM. The GI50 (NCI/ADR-RES ovarian) was 0.578 µM, the TGI (NCI/ADR-RES ovarian) was > 100 µM and the GI50 (HCC-2998 colon) was 11.5 µM. For the same molecule, the TGI (HCC-2998 colon) was > 100 µM, the GI50 (RXF 393 renal) was 3.76 µM and the TGI (RXF 393 renal) was 32.8 µM. For the same molecule, the GI50 (MOLT-4 leukemia) was 0.505 µM, the TGI (MOLT-4 leukemia) was > 100 µM and the TGI (K-562 leukemia) was > 100 µM. It also gave a GI50 (SK-MEL-2 melanoma) of 18.6 µM, a TGI (SK-MEL-2 melanoma) of 45.4 µM and a GI50 (MDA-MB-468 breast) of 3.45 µM. For the same molecule, the TGI (MDA-MB-468 breast) was 23 µM, the GI50 (SNB-75 CNS) was 0.656 µM and the TGI (SNB-75 CNS) was 8.39 µM. For the same molecule, the GI50 (SF-268 CNS) was 0.844 µM, the TGI (SF-268 CNS) was > 100 µM and the GI50 (NCI-H522 lung) was 0.286 µM. For the same molecule, the TGI (NCI-H522 lung) was 5.82 µM, the GI50 (M14 melanoma) was 0.542 µM and the TGI (M14 melanoma) was > 100 µM. The GI50 (BT-549 breast) was 1.84 µM, the TGI (BT-549 breast) was > 100 µM and the GI50 (HCT-116 colon) was 2.09 µM. For the same molecule, the TGI (HCT-116 colon) was > 100 µM, the GI50 (HOP-62 NSCLC) was 0.833 µM and the TGI (HOP-62 NSCLC) was > 57.8 µM. For the same molecule, the GI50 (OVCAR-8 ovarian) was 1.47 µM, the TGI (OVCAR-8 ovarian) was > 100 µM and the GI50 (IGROV1 ovarian) was 1.05 µM. The TGI (IGROV1 ovarian) was > 100 µM, the GI50 (UACC-62 melanoma) was 0.799 µM and the TGI (UACC-62 melanoma) was 14.6 µM. For the same molecule, the GI50 (ACHN renal) was 0.372 µM, the TGI (ACHN renal) was 13.3 µM and the GI50 (A549 NSCLC) was > 52.1 µM. For the same molecule, the TGI (A549 NSCLC) was > 100 µM, the GI50 (SK-MEL-28 melanoma) was 5.84 µM and the TGI (SK-MEL-28 melanoma) was > 100 µM. The GI50 (HL-60(TB) leukemia) was 6.07 µM, the TGI (HL-60(TB) leukemia) was > 100 µM and the GI50 (OVCAR-5 ovarian) was > 100 µM. The TGI (OVCAR-5 ovarian) was > 100 µM, the GI50 (HS 578T breast) was 2.42 µM and the TGI (HS 578T breast) was > 34.9 µM. The GI50 (MDA-MB-435) was 4.91 µM, the TGI (MDA-MB-435) was > 100 µM and the GI50 (LOX IMVI melanoma) was 0.227 µM. The TGI (LOX IMVI melanoma) was 1.4 µM, the GI50 (U251 CNS) was 0.641 µM and the TGI (U251 CNS) was > 100 µM. The GI50 (T-47D breast) was 3.22 µM, the TGI (T-47D breast) was > 100 µM and the GI50 (SNB-19 CNS) was 0.678 µM. The TGI (SNB-19 CNS) was > 79.9 µM, the GI50 (MDA-MB-231 breast) was 4.99 µM and the TGI (MDA-MB-231 breast) was 64.3 µM. The GI50 (DU-145 prostate) was 0.735 µM, the TGI (DU-145 prostate) was > 100 µM and the GI50 (EKVX NSCLC) was 25.8 µM. For the same molecule, the TGI (EKVX NSCLC) was > 100 µM, the GI50 (UACC-257 melanoma) was > 100 µM and the TGI (UACC-257 melanoma) was > 100 µM. The GI50 (SW-620 colon) was 0.477 µM, the TGI (SW-620 colon) was > 100 µM and the GI50 (OVCAR-3 ovarian) was 45 µM. For the same molecule, the TGI (OVCAR-3 ovarian) was > 100 µM, the GI50 (OVCAR-4 ovarian) was > 100 µM and the TGI (OVCAR-4 ovarian) was > 100 µM. For the same molecule, the GI50 (SN12C renal) was 0.473 µM, the TGI (SN12C renal) was > 100 µM and the GI50 (MALME-3M melanoma) was 2.5 µM. For the same molecule, the TGI (MALME-3M melanoma) was 16.1 µM, the GI50 (CAKI-1 renal) was 1.34 µM and the TGI (CAKI-1 renal) was > 100 µM. The GI50 (A498 renal) was 26.6 µM, the TGI (A498 renal) was 70.9 µM and the GI50 (KM12 colon) was 5.89 µM. The TGI (KM12 colon) was > 100 µM, the GI50 (MCF7 breast) was 0.488 µM and the TGI (MCF7 breast) was > 100 µM. For the same molecule, the GI50 (HT29 colon) was 6.86 µM, the TGI (HT29 colon) was > 100 µM and the GI50 (RPMI-8226 leukemia) was 1.86 µM. For the same molecule, the TGI (RPMI-8226 leukemia) was > 100 µM, the GI50 (NCI-H226 lung) was 8.35 µM and the TGI (NCI-H226 lung) was > 100 µM. For the same molecule, the GI50 (HCT-15 colon) was 3.57 µM, the TGI (HCT-15 colon) was > 100 µM and the GI50 (HOP-92 NSCLC) was 2.35 µM. The TGI (HOP-92 NSCLC) was 13.2 µM, the GI50 (786-0 renal) was 3.84 µM and the TGI (786-0 renal) was > 50.6 µM. The GI50 (SK-MEL-5 melanoma) was 1.42 µM, the TGI (SK-MEL-5 melanoma) was 15 µM and the GI50 (SF-295 CNS) was 1.24 µM. For the same molecule, the TGI (SF-295 CNS) was > 46.4 µM, the GI50 (NCI-H23 lung) was 0.471 µM and the TGI (NCI-H23 lung) was 11.7 µM.
